According to patent US11040028B2, “Penicinotam derivative, preparation method and use thereof” (OCEAN UNIVERSITY OF CHINA, priority 2017, dated 2021):

Tests used:
Format in all cases: cell-based
[1] = test system: cardiac fibroblast RAT-iCell-C002; assay: Anti-fibrosis activity test: inhibition of proliferation of cardiac fibroblast RAT-iCell-C002 (CCK-8); conditions: Cardiac fibroblast, 48 h
Experimental: (§1) BHK-21 cells in exponential growth phase were selected. After the fusion growth reached 85-95%, normal passage method was utilized to digest and collect the cells, followed by cell counting and adjusting the cell density to 2×10^4 cells/mL. The cells were seeded into 96-well plates, 100 μL/well, and were incubated under the condition of 5% CO2 at 37° C.
(§2) The supernatant was removed after the cells had adhered to the wall for 24 hours. The culture solution containing the prepared compounds at different concentrations were added to the wells, 100 μL/well, each concentration in triplicate. The cells were subcultured for 48 hours after administration. Commercially available pirfenidone was employed as the positive control.
(§3) 10 μL of CCK-8 solution ( 1/10 of the volume of the culture solution) was added to each well 48 hours after the administration, and incubated for 2 hours. The absorbance (A) of each well was determined by a microplate reader at 450 nm wavelength. The inhibition rate against cell proliferation for each compound was calculated based on A, wherein inhibition rate against cell proliferation (inhibition ratio, IR)=(1−value of experimental group (Ai)/value of blank control group (Ao))×100% and the IC50 value of each compound was calculated by the data processing software.
(§4) Using the same protocol for the cell experiments, the inhibitory activity of the test compounds against the proliferation of human lung fibroblasts HFL1, human hepatic stellate cells LX-2, human fibrosarcoma cells HT-1080, human dermal fibroblasts CCC-ESF-1, human embryonic lung fibroblast IMR-90, cardiac fibroblast RAT-iCell-C002 was assayed.

[2] = test system: human dermal fibroblasts CCC-ESF-1; assay: Anti-fibrosis activity test: inhibition of proliferation of human dermal fibroblasts CCC-ESF-1 (CCK-8); conditions: Fibroblast
Experimental: as §1, §2, §3, §4

[3] = test system: human lung fibroblasts HFL1; assay: Anti-fibrosis activity test: inhibition of proliferation of human lung fibroblasts HFL1 (CCK-8); conditions: Homo sapiens, HFL1, 48 h
Experimental: as §1, §2, §3, §4

[4] = test system: BHK-21 cells; assay: Anti-fibrosis activity test: inhibition of BHK-21 cell proliferation (CCK-8); conditions: Mesocricetus auratus, BHK-21, 48 h
Experimental: as §1, §2, §3

[5] = test system: human embryonic lung fibroblast IMR-90; assay: Anti-fibrosis activity test: inhibition of proliferation of human embryonic lung fibroblast IMR-90 (CCK-8)
Experimental: as §1, §2, §3, §4

[6] = test system: human fibrosarcoma cells HT-1080; assay: Anti-fibrosis activity test: inhibition of proliferation of human fibrosarcoma cells HT-1080 (CCK-8); conditions: Homo sapiens, HT-1080, 48 h
Experimental: as §1, §2, §3, §4

[7] = test system: human hepatic stellate cells LX-2; assay: Anti-fibrosis activity test: inhibition of proliferation of human hepatic stellate cells LX-2 (CCK-8); conditions: Homo sapiens, 48 h
Experimental: as §1, §2, §3, §4

[8] = cardiac fibroblast RAT-iCell-C002, CCK-8, 48 hours
[9] = human dermal fibroblasts CCC-ESF-1, CCK-8, 48 hours
[10] = human lung fibroblasts HFL1, CCK-8, 48 hours
[11] = CCK-8, 48 hours after administration
[12] = human embryonic lung fibroblast IMR-90, CCK-8, 48 hours
[13] = human fibrosarcoma cells HT-1080, CCK-8, 48 hours
[14] = human hepatic stellate cells LX-2, CCK-8, 48 hours

Row | IC50 [6, 13] | IC50 ([6]; HT-1080 cells, 48 h, CCK-8) | Structure (SMILES) | IC50 [1, 8] | IC50 [2, 9] | IC50 [3, 10] | IC50 [4, 11] | IC50 [5, 12] | IC50 [7, 14] | IC50 ([1]; RAT-iCell-C002 cells, CCK-8) | IC50 ([2]; Homo sapiens, CCC-ESF-1 cells, 48 h, CCK-8) | IC50 ([3]; HFL1 cells, 48 h, CCK-8) | IC50 ([4]; 48 h, CCK-8) | IC50 ([5]; Homo sapiens, IMR-90 cells, 48 h, CCK-8) | IC50 ([7]; LX-2, 48 h, LX-2 cells, CCK-8)
1 | 0.05 to 5 mM |  | N#Cc1ccc(COc2c3c(nc4cc(N5CCNCC5)c(F)cc24)-c2cccn2C3=O)cc1 [Compound 635b, 4-(((7-fluoro-10-oxo-6-(piperazin-1-yl)-10H-pyrrolizino[1,2-b]quinolin-9-yl)oxy)methyl)benzonitrile] | 0.05 to 5 mM | 0.05 to 5 mM | 0.05 to 5 mM | 0.05 to 5 mM | 0.05 to 5 mM | 0.05 to 5 mM |  |  |  |  |  | 
2 | 0.05 to 5 mM |  | O=C1c2c(nc3cc(N4CCNCC4)c(F)cc3c2OCc2ccc(C(F)(F)F)cc2)-c2cccn21 [Compound 636b, 7-fluoro-6-(piperazin-1-yl)-9-((4-(trifluoromethyl)benzyl)oxy)-10H-pyrrolizino[1,2-b]quinolin-10-one] | 0.05 to 5 mM | 0.05 to 5 mM | 0.05 to 5 mM | 0.05 to 5 mM | 0.05 to 5 mM | 0.05 to 5 mM |  |  |  |  |  | 
3 | 0.05 to 5 mM |  | N#Cc1ccccc1-c1ccc(Cn2c3c(c(=O)c4cc(F)c(N5CCNCC5)cc42)C(=O)n2cccc2-3)cc1 [Compound 638a, 4′-((7-Fluoro-9,10-dioxo-6-(piperazin-1-yl)-9H-pyrrolizino[1,2-b]quinolin-4(10H)-yl)methyl)-[1,1′-biphenyl]-2-carbonitrile] | 0.05 to 5 mM | 0.05 to 5 mM | 0.05 to 5 mM | 0.05 to 5 mM | 0.05 to 5 mM | 0.05 to 5 mM |  |  |  |  |  | 
4 | < 0.05 mM |  | N#Cc1cc2c(OCc3ccc(-c4ccccc4)cc3)c3c(nc2cc1N1CCNCC1)-c1cccn1C3=O [Compound 643b, 9-([1,1′-biphenyl]-4-ylmethoxy)-10-oxo-6-(piperazin-1-yl)-10H-pyrrolizino[1,2-b]quinoline-7-carbonitrile] | 0.05 to 5 mM | 0.05 to 5 mM | 0.05 to 5 mM | 0.05 to 5 mM | 0.05 to 5 mM | 0.05 to 5 mM |  |  |  |  |  | 
5 | 5 to 20 mM |  | O=C1c2c(n(Cc3ccc(-c4ccccc4)cc3)c3cc(N4CCNCC4)c(F)cc3c2=O)-c2cccn21 [Compound 637a, 4-([1,1′-Biphenyl]-4-ylmethyl)-7-fluoro-6-(piperazin-1-yl)-9H-pyrrolizino[1,2-b]quinoline-9,10(4H)-dione] | 0.05 to 5 mM | 0.05 to 5 mM | 0.05 to 5 mM | < 0.05 mM | 0.05 to 5 mM | 0.05 to 5 mM |  |  |  |  |  | 
6 | 0.05 to 5 mM |  | O=C1c2c(nc3cc(N4CCNCC4)cc(F)c3c2OCc2ccc(F)cc2)-c2cccn21 [Compound 646b, 8-fluoro-9-((4-fluorobenzyl)oxy)-6-(piperazin-1-yl)-10H-pyrrolizino[1,2-b]quinolin-10-one] | 0.05 to 5 mM | 0.05 to 5 mM | 0.05 to 5 mM | 0.05 to 5 mM | 0.05 to 5 mM | 0.05 to 5 mM |  |  |  |  |  | 
7 |  | 0.05 to 5 mM | Cc1ccc2n1C(=O)c1c-2[nH]c2ccccc2c1=O [Compound 800a, 1-Methyl-9H-pyrrolizino[1,2-b]quinoline-9,10(4H)-dione] |  |  |  |  |  |  | 0.05 to 5 mM | 0.05 to 5 mM | 0.05 to 5 mM | 0.05 to 5 mM | 0.05 to 5 mM | 0.05 to 5 mM
8 | 0.05 to 5 mM |  | O=C1c2c(nc3cc(N4CCNCC4)cc(F)c3c2OCc2ccc(Cl)cc2)-c2cccn21 [Compound 647b, 9-((4-chlorobenzyl)oxy)-8-fluoro-6-(piperazin-1-yl)-10H-pyrrolizino[1,2-b]quinolin-10-one] | 0.05 to 5 mM | 0.05 to 5 mM | 0.05 to 5 mM | 0.05 to 5 mM | 0.05 to 5 mM | 0.05 to 5 mM |  |  |  |  |  | 
9 | 0.05 to 5 mM |  | N#Cc1ccc(Cn2c3c(c(=O)c4cc(F)c(N5CCNCC5)cc42)C(=O)n2cccc2-3)cc1 [Compound 635a, 4-((7-Fluoro-9,10-dioxo-6-(piperazin-1-yl)-9H-pyrrolizino[1,2-b]quinolin-4(10H)-yl)methyl)benzonitrile] | 0.05 to 5 mM | 0.05 to 5 mM | 0.05 to 5 mM | 0.05 to 5 mM | 0.05 to 5 mM | 0.05 to 5 mM |  |  |  |  |  | 
10 | 0.05 to 5 mM |  | O=C1c2c(nc3cc(Cl)ccc3c2OCc2ccccc2Cl)-c2cccn21 [Compound 510b, 6-chloro-9-((2-chlorobenzyl)oxy)-10H-pyrrolizino[1,2-b]quinolin-10-one] | 0.05 to 5 mM | 0.05 to 5 mM | 0.05 to 5 mM | 0.05 to 5 mM | 0.05 to 5 mM | 0.05 to 5 mM |  |  |  |  |  | 
11 | 0.05 to 5 mM |  | N#Cc1ccccc1-c1ccc(Cn2c3c(c(=O)c4cc(C#N)c(N5CCNCC5)cc42)C(=O)n2cccc2-3)cc1 [Compound 644a, 4-((2′-Cyano-[1,1′-biphenyl]-4-yl)methyl)-9,10-dioxo-6-(piperazin-1-yl)-4,10-dihydro-9H-pyrrolizino[1,2-b]quinoline-7-carbonitrile] | 0.05 to 5 mM | 0.05 to 5 mM | 0.05 to 5 mM | 0.05 to 5 mM | 0.05 to 5 mM | 0.05 to 5 mM |  |  |  |  |  | 
12 | 0.05 to 5 mM |  | O=C1c2c(n(Cc3ccc(F)cc3)c3cc(N4CCNCC4)c(F)cc3c2=O)-c2cccn21 [Compound 634a, 7-Fluoro-4-(4-fluorobenzyl)-6-(piperazin-1-yl)-9H-pyrrolizino[1,2-b]quinoline-9,10(4H)-dione] | 0.05 to 5 mM | 0.05 to 5 mM | 0.05 to 5 mM | 0.05 to 5 mM | 0.05 to 5 mM | 0.05 to 5 mM |  |  |  |  |  | 
13 | 0.05 to 5 mM |  | CC(C)CCOc1c2c(nc3ccc(F)cc13)-c1cccn1C2=O [Compound 105b, 7-fluoro-9-(isopentyloxy)-10H-pyrrolizino[1,2-b]quinolin-10-one] | 0.05 to 5 mM | 0.05 to 5 mM | 0.05 to 5 mM | 0.05 to 5 mM | 0.05 to 5 mM | 0.05 to 5 mM |  |  |  |  |  | 
14 | 0.05 to 5 mM |  | O=C1c2c(n(Cc3ccc(C(F)(F)F)cc3)c3cc(N4CCNCC4)c(F)cc3c2=O)-c2cccn21 [Compound 636a, 7-Fluoro-6-(piperazin-1-yl)-4-(4-(trifluoromethyl)benzyl)-9H-pyrrolizino[1,2-b]quinoline-9,10(4H)-dione] | 0.05 to 5 mM | < 0.05 mM | 0.05 to 5 mM | 0.05 to 5 mM | 0.05 to 5 mM | 0.05 to 5 mM |  |  |  |  |  | 
15 | 0.05 to 5 mM |  | O=C1c2c(n(Cc3ccc(Cl)cc3)c3cc(N4CCNCC4)c(F)cc3c2=O)-c2cccn21 [Compound 632a, 4-(4-Chlorobenzyl)-7-fluoro-6-(piperazin-1-yl)-9H-pyrrolizino[1,2-b]quinoline-9,10(4H)-dione] | 0.05 to 5 mM | < 0.05 mM | 0.05 to 5 mM | 0.05 to 5 mM | 0.05 to 5 mM | 0.05 to 5 mM |  |  |  |  |  | 
16 | 0.05 to 5 mM |  | N#Cc1ccc(COc2c3c(nc4cc(N5CCNCC5)c(C#N)cc24)-c2cccn2C3=O)cc1 [Compound 641b, 9-((4-cyanobenzyl)oxy)-10-oxo-6-(piperazin-1-yl)-10H-pyrrolizino[1,2-b]quinoline-7-carbonitrile] | 0.05 to 5 mM | 0.05 to 5 mM | 0.05 to 5 mM | 0.05 to 5 mM | 0.05 to 5 mM | 0.05 to 5 mM |  |  |  |  |  | 
17 | 0.05 to 5 mM |  | N#Cc1cc2c(=O)c3c(n(Cc4ccc(C(F)(F)F)cc4)c2cc1N1CCNCC1)-c1cccn1C3=O [Compound 642a, 9,10-Dioxo-6-(piperazin-1-yl)-4-(4-(trifluoromethyl)benzyl)-4,10-dihydro-9H-pyrrolizino[1,2-b]quinoline-7-carbonitrile] | 0.05 to 5 mM | < 0.05 mM | 0.05 to 5 mM | 0.05 to 5 mM | 0.05 to 5 mM | 0.05 to 5 mM |  |  |  |  |  | 
18 | 0.05 to 5 mM |  | N#Cc1cc2c(=O)c3c(n(Cc4ccc(Cl)cc4)c2cc1N1CCNCC1)-c1cccn1C3=O [Compound 640a, 4-(4-Chlorobenzyl)-9,10-dioxo-6-(piperazin-1-yl)-4,10-dihydro-9H-pyrrolizino[1,2-b]quinoline-7-carbonitrile] | 0.05 to 5 mM | 0.05 to 5 mM | 0.05 to 5 mM | 0.05 to 5 mM | 0.05 to 5 mM | 0.05 to 5 mM |  |  |  |  |  | 

Row | Structure (SMILES) | IC50 [6, 13] | IC50 ([6]; HT-1080 cells, 48 h, CCK-8) | IC50 [1, 8] | IC50 [2, 9] | IC50 [3, 10] | IC50 [4, 11] | IC50 [5, 12] | IC50 [7, 14] | IC50 ([1]; RAT-iCell-C002 cells, CCK-8) | IC50 ([2]; Homo sapiens, CCC-ESF-1 cells, 48 h, CCK-8) | IC50 ([3]; HFL1 cells, 48 h, CCK-8) | IC50 ([4]; 48 h, CCK-8) | IC50 ([5]; Homo sapiens, IMR-90 cells, 48 h, CCK-8) | IC50 ([7]; LX-2, 48 h, LX-2 cells, CCK-8)
19 | O=C1c2c(nc3cc(N4CCNCC4)c(F)cc3c2O)-c2cccn21 [Compound 346b, 7-fluoro-9-hydroxy-6-(piperazin-1-yl)-10H-pyrrolizino[1,2-b]quinolin-10-one] | 0.05 to 5 mM |  | 0.05 to 5 mM | 0.05 to 5 mM | 0.05 to 5 mM | 0.05 to 5 mM | 0.05 to 5 mM | 0.05 to 5 mM |  |  |  |  |  | 
